In assay [1] the target is Cyclin-dependent kinase 2/cyclin A (Homo sapiens) (UniProt P24941+P20248+P78396). The assay is described as follows: Enzymatic radiometric [Km ATP] KinaseProfiler LeadHunter assay, kinase: CDK2/cyclinA, catalogue number: 14-448KP The assay has been performed by Eurofins Discovery. The following applies: ATP concentration 45.0 uM, Test compound concentration 10.0 uM. It is filed as protein-complex assay.

In assay [2] the target is Serine/threonine-protein kinase mTOR (Homo sapiens) (UniProt P42345). The assay is described as follows: Enzymatic radiometric [Km ATP] KinaseProfiler LeadHunter assay, kinase: mTOR, catalogue number: 14-769KP The assay has been performed by Eurofins Discovery. The following applies: ATP concentration 70.0 uM, Test compound concentration 10.0 uM.
In assay [3] the target is Mitogen-activated protein kinase kinase kinase 9 (Homo sapiens) (UniProt P80192). The assay is described as follows: Enzymatic radiometric [Km ATP] KinaseProfiler LeadHunter assay, kinase: MLK1, catalogue number: 14-690KP The assay has been performed by Eurofins Discovery. To be noted: ATP concentration 45.0 uM, Test compound concentration 10.0 uM.
In assay [4] the target is Serine/threonine-protein kinase PLK3 (Homo sapiens) (UniProt Q9H4B4). The assay can be described thus: Enzymatic radiometric [Km ATP] KinaseProfiler LeadHunter assay, kinase: Plk3, catalogue number: 14-572KP The assay has been performed by Eurofins Discovery. The following applies: ATP concentration 70.0 uM, Test compound concentration 10.0 uM.
In assay [5] the target is Mitogen-activated protein kinase 14 (Homo sapiens) (UniProt Q16539). The assay is described as follows: Enzymatic radiometric [Km ATP] KinaseProfiler LeadHunter assay, kinase: SAPK2a, catalogue number: 14-251KP The assay has been performed by Eurofins Discovery. To be noted: ATP concentration 90.0 uM, Test compound concentration 10.0 uM.
For assay [6], the target named is cAMP-dependent protein kinase catalytic subunit alpha (Homo sapiens) (UniProt P17612). The assay can be described thus: Enzymatic radiometric [Km ATP] KinaseProfiler LeadHunter assay, kinase: PKA, catalogue number: 14-440KP The assay has been performed by Eurofins Discovery. The following applies: ATP concentration 10.0 uM, Test compound concentration 10.0 uM.
In assay [7] the target is T1, Serine/threonine-protein kinase Nek2 (Homo sapiens) (UniProt P51955).
T1 sequence (whole entry): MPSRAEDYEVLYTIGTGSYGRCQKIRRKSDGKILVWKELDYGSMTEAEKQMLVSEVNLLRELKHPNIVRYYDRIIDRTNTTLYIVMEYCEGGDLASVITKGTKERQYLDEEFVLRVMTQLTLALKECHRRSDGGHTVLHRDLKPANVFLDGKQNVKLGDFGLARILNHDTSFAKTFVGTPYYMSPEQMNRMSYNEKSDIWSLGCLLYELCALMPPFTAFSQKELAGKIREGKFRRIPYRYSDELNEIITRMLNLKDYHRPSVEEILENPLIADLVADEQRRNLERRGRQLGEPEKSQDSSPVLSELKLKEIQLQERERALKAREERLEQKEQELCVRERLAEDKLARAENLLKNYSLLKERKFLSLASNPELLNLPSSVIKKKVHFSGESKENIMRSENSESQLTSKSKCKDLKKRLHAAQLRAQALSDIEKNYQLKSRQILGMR
The assay is described as follows: Enzymatic radiometric [Km ATP] KinaseProfiler LeadHunter assay, kinase: NEK2, catalogue number: 14-545KP The assay has been performed by Eurofins Discovery. The following applies: ATP concentration 120.0 uM, Test compound concentration 10.0 uM.

In assay [8] the target is Vascular endothelial growth factor receptor 2 (Homo sapiens) (UniProt P35968). The assay is described as follows: Enzymatic radiometric [Km ATP] KinaseProfiler LeadHunter assay, kinase: KDR, catalogue number: 14-630KP The assay has been performed by Eurofins Discovery. The following applies: ATP concentration 90.0 uM, Test compound concentration 10.0 uM.
For assay [9], the target named is Glycogen synthase kinase-3 beta (Homo sapiens) (UniProt P49841). The assay is described as follows: Enzymatic radiometric [Km ATP] KinaseProfiler LeadHunter assay, kinase: GSK3-beta, catalogue number: 14-306KP The assay has been performed by Eurofins Discovery. The following applies: ATP concentration 15.0 uM, Test compound concentration 10.0 uM.
Assay [10] addresses MAP kinase-activated protein kinase 2 (Homo sapiens) (UniProt P49137). The assay is described as follows: Enzymatic radiometric [Km ATP] KinaseProfiler LeadHunter assay, kinase: MAPKAP-K2, catalogue number: 14-337KP The assay has been performed by Eurofins Discovery. The following applies: ATP concentration 90.0 uM, Test compound concentration 10.0 uM.
In assay [11] the target is Ribosomal protein S6 kinase alpha-4 (Homo sapiens) (UniProt O75676). The assay is described as follows: Enzymatic radiometric [Km ATP] KinaseProfiler LeadHunter assay, kinase: MSK2, catalogue number: 14-616KP The assay has been performed by Eurofins Discovery. To be noted: ATP concentration 45.0 uM, Test compound concentration 10.0 uM.
The target in assay [12] is MAP kinase-interacting serine/threonine-protein kinase 2 (Homo sapiens) (UniProt Q9HBH9). The assay can be described thus: Enzymatic radiometric [Km ATP] KinaseProfiler LeadHunter assay, kinase: Mnk2, catalogue number: 14-664KP The assay has been performed by Eurofins Discovery. The following applies: ATP concentration 120.0 uM, Test compound concentration 10.0 uM.
Assay [13] concerns the target Tyrosine-protein kinase JAK2 (Homo sapiens) (UniProt O60674). The assay can be described thus: Enzymatic radiometric [Km ATP] KinaseProfiler LeadHunter assay, kinase: JAK2, catalogue number: 14-640KP The assay has been performed by Eurofins Discovery. To be noted: ATP concentration 45.0 uM, Test compound concentration 10.0 uM.
In assay [14] the target is T2, Serine/threonine-protein kinase 4 (Homo sapiens) (UniProt Q13043).
T2 sequence (whole entry): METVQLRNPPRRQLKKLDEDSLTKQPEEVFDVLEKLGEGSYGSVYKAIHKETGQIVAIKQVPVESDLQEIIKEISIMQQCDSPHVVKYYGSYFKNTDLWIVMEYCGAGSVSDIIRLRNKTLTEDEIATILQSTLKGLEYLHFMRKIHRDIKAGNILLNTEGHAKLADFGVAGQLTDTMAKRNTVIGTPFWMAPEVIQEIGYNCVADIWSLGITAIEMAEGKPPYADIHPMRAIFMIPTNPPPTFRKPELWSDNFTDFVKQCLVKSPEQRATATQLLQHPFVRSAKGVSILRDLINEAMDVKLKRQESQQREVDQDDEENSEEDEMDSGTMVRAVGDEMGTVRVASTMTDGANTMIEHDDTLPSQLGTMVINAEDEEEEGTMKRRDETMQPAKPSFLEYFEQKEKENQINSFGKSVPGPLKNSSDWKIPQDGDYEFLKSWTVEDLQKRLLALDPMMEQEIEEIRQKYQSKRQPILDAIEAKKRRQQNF
The assay can be described thus: Enzymatic radiometric [Km ATP] KinaseProfiler LeadHunter assay, kinase: MST1, catalogue number: 14-624KP The assay has been performed by Eurofins Discovery. The following applies: ATP concentration 90.0 uM, Test compound concentration 10.0 uM.

For assay [15], the target named is CDK7/Cyclin H/MNAT1 (Homo sapiens) (UniProt P51946+P50613+P51948). The assay can be described thus: Enzymatic radiometric [Km ATP] KinaseProfiler LeadHunter assay, kinase: CDK7/cyclinH/MAT1, catalogue number: 14-476KP The assay has been performed by Eurofins Discovery. To be noted: ATP concentration 90.0 uM, Test compound concentration 10.0 uM. The format is protein-complex assay.

For assay [16], the target named is Insulin-like growth factor 1 receptor (Homo sapiens) (UniProt P08069). The assay is described as follows: Enzymatic radiometric [Km ATP] KinaseProfiler LeadHunter assay, kinase: IGF-1R, catalogue number: 14-465KP The assay has been performed by Eurofins Discovery. To be noted: ATP concentration 200.0 uM, Test compound concentration 10.0 uM.

SMILES strings stand for the structures. Several values for one entry are separate records, joined by “and”; a condition that tells them apart may be missing. Identical values can stand only once.

Chain of Glycogen synthase kinase-3 beta (Homo sapiens) (P49841 whole entry, looked up): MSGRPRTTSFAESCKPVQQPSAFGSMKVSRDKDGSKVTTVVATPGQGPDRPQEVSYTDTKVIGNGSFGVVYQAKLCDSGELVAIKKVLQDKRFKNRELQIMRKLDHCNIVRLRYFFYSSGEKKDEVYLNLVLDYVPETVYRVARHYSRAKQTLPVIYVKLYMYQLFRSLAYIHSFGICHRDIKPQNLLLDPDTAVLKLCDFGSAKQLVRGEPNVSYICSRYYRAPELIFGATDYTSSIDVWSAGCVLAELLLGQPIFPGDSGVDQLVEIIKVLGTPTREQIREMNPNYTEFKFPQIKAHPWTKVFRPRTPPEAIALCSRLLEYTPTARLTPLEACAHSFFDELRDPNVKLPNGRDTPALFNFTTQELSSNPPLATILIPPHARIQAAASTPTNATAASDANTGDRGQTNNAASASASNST
Chain of MAP kinase-activated protein kinase 2 (Homo sapiens) (P49137 whole entry, looked up): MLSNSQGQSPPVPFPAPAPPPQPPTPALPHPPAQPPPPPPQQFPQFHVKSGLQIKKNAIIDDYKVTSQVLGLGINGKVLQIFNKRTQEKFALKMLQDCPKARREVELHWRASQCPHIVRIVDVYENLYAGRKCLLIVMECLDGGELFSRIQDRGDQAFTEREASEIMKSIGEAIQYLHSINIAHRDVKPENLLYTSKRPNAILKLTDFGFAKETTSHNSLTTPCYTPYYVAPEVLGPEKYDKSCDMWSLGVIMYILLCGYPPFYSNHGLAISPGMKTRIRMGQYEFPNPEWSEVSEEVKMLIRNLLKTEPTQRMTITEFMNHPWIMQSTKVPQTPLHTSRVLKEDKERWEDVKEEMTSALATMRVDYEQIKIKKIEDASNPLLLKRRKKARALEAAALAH
Chain of Mitogen-activated protein kinase 14 (Homo sapiens) (Q16539 whole entry): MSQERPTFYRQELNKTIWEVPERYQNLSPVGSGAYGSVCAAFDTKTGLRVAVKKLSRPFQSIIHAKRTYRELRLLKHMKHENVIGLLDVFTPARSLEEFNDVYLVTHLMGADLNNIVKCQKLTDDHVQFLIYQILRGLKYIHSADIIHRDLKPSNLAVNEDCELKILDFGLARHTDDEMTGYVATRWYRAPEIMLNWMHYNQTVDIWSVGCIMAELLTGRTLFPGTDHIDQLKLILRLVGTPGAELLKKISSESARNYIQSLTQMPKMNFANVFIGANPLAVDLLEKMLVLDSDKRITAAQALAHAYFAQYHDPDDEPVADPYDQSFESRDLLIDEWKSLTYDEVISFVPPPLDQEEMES
Chain of MAP kinase-interacting serine/threonine-protein kinase 2 (Homo sapiens) (Q9HBH9 whole entry, looked up): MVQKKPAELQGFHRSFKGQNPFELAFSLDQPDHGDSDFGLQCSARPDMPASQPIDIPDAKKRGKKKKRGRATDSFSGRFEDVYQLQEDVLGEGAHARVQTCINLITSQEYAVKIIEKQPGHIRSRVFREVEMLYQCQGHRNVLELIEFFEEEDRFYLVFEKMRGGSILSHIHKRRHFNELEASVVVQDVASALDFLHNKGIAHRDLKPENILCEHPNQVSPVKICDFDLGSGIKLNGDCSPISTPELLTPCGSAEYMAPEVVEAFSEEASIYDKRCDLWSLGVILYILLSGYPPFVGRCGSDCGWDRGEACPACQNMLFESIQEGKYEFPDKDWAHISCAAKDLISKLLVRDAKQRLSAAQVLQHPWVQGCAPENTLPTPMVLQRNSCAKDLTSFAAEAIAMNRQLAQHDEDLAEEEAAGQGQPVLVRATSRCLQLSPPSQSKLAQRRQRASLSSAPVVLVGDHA
Chain of Insulin-like growth factor 1 receptor (Homo sapiens) (P08069 31-736 limits assumed): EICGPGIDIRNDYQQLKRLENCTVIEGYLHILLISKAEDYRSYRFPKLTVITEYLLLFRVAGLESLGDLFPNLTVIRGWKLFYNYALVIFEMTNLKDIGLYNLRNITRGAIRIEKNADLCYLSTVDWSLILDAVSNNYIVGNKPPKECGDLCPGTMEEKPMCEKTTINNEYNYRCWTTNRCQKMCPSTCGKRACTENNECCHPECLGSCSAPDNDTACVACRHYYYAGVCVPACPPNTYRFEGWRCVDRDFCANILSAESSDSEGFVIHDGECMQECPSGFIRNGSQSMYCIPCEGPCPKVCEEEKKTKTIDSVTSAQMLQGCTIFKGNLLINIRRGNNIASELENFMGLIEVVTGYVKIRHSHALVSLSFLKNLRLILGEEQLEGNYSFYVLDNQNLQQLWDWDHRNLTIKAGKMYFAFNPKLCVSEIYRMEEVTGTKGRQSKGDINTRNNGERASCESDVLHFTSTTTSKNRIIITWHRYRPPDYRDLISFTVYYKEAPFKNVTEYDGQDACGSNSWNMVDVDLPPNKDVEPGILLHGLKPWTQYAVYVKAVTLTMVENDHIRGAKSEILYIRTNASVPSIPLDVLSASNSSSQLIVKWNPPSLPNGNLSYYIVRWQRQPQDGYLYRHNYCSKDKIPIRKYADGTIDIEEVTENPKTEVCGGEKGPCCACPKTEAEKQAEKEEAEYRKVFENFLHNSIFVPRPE
Chain of Insulin-like growth factor 1 receptor (Homo sapiens) (P08069 741-1367 limits assumed): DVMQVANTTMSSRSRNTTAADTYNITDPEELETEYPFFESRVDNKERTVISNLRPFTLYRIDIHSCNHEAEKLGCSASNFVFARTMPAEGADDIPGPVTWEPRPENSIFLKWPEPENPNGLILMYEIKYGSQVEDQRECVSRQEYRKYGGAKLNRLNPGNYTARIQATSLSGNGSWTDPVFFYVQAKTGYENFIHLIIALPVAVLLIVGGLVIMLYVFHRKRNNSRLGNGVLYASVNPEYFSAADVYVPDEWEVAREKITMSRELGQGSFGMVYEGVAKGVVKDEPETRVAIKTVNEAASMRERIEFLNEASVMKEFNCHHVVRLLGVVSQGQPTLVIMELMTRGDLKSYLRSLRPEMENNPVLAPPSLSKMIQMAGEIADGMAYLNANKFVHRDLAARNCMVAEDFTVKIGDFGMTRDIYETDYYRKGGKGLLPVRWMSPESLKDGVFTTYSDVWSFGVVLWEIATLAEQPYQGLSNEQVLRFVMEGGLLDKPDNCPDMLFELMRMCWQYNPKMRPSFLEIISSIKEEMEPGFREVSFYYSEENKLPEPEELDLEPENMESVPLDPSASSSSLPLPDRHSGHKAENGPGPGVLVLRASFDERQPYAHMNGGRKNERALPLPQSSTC
Chain of Ribosomal protein S6 kinase alpha-4 (Homo sapiens) (O75676 whole entry, looked up): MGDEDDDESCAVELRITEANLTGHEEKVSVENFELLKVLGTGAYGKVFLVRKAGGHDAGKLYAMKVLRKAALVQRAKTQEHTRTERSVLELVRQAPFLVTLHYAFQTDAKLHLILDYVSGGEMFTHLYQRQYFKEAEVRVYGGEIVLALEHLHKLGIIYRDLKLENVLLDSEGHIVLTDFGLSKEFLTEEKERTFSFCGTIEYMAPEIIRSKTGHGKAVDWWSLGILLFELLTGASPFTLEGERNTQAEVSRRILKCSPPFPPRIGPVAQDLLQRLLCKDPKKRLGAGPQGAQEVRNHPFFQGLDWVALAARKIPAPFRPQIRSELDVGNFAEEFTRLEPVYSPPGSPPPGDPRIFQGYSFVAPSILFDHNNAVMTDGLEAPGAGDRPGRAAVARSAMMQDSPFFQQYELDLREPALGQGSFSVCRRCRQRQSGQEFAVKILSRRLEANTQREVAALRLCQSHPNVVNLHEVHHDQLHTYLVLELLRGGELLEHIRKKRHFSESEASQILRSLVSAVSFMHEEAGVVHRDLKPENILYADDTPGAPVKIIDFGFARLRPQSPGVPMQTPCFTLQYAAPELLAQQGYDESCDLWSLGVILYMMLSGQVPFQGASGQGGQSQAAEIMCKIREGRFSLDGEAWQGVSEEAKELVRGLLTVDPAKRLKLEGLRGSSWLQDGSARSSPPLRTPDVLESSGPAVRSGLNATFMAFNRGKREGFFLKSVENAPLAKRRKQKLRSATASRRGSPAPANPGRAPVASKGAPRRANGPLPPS
Chain of Mitogen-activated protein kinase kinase kinase 9 (Homo sapiens) (P80192 whole entry, looked up): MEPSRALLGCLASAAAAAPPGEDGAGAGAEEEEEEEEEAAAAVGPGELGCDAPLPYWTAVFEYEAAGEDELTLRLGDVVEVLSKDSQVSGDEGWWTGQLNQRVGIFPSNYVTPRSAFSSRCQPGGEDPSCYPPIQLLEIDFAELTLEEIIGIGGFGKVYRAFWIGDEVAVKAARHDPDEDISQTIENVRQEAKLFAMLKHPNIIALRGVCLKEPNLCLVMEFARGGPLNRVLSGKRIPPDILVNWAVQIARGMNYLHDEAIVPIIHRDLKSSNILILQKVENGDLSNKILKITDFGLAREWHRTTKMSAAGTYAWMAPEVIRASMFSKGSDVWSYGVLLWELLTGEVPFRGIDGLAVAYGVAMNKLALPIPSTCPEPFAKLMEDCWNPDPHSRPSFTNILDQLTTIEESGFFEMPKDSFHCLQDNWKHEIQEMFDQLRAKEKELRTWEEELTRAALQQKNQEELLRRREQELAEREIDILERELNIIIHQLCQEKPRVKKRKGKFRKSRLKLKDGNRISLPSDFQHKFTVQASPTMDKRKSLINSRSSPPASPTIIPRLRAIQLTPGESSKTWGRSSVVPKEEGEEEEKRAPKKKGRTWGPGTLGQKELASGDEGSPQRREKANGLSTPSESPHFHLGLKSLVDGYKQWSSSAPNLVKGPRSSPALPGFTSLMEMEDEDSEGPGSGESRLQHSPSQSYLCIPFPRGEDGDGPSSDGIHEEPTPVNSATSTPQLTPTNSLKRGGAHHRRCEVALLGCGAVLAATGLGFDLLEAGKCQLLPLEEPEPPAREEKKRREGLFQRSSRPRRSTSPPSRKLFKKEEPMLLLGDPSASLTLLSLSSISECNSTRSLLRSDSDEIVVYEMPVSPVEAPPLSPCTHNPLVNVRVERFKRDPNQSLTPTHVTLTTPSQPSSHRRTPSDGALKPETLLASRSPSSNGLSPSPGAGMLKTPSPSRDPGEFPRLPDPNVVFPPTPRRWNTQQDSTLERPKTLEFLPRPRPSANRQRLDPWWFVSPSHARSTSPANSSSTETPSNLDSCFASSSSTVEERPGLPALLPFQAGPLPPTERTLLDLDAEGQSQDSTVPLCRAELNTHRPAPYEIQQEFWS

With `CC(C)[C@@H](Nc1ncnc2[nH]c(C(=O)N[C@@H]3CCN(C)C3)cc12)c1ccc2c(c1)S(=O)(=O)CCC2`, the Activity in [1] stood at 117%; in [2], 103%; in assay [3], 96%; in [4], 98%; in assay [5] it was 97%; in assay [6], 89%. In addition, the Activity in assay [7] stood at 118%; in [8], 96%; in assay [9] it was 93%; in [10], 108%; in assay [11], 93%; in assay [12], 99%. In addition, the Activity in assay [13] was 106%; in assay [14], 122%; in assay [15] it was 101%; in [16] it was 104%.

Consider `Cn1ncc(-c2cc3c(N[C@@H](c4ccc5c(n4)OCCO5)C(C)(C)C)ncnc3[nH]2)c1C#N`, for which the Activity in assay [1] stood at 114%; in assay [2], 105%; in [3], 94%; in assay [4], 77%; in assay [5] it was 106%; in assay [6] it was 95%. Also, the Activity in [7] was 104%; in assay [8], 83%; in assay [9], 98%; in assay [10], 110%; in assay [11] it was 122%; in [12], 100%. Also, the Activity was determined as 140% in assay [13], 115% in assay [14], 108% in [15] and 77% in [16].

Consider `Cc1nn(C)cc1-c1cc2c(N[C@H](c3ccc4c(c3)S(=O)(=O)CCC4)C(C)C)ncnc2[nH]1`, for which the Activity in [1] is 107%; in assay [2], 96%; in assay [3], 79%; in assay [4], 104%; in assay [5], 98%; in assay [6], 95%. In addition, the Activity is 98% in [7]; 88% in assay [8]; 96% in assay [9]; 110% in assay [10]; 105% in assay [11]; 99% in assay [12]. The Activity was determined as 111% in assay [13], 115% in [14], 93% in [15] and 97% in [16].

For the compound `CC(C)[C@H](Nc1ncnc2[nH]ccc12)c1ccc2c(c1)S(=O)(=O)CCC2`, the Activity was determined as 102% in assay [1]; 99% in assay [2]; 84% in [3]; 112% in assay [4]; 107% in assay [5]; 89% in [6]. Besides, the Activity in assay [7] was determined as 109%; in [8], 86%; in [9], 94%; in assay [10], 106%; in [11], 92%; in assay [12], 98%. Further, the Activity in assay [13] was determined as 99%; in [14], 126%; in [15] it was 89%; in assay [16], 100%.

With `CC(C)[C@@H](Nc1ncnc2[nH]c(-c3cnn(C)c3C#N)cc12)c1ccc2c(n1)OCCO2`, the Activity in assay [1] was 95% and 104%; in assay [2], 83% and 102%; in assay [3], 81% and 82%; in [4], 90% and 89%; in assay [5], 103% and 101%; in assay [6], 92% and 93%. The Activity is 94% and 76% in [7]; 80% and 86% in [8]; 85% and 101% in [9]; 98% and 114% in [10]; 103% and 122% in assay [11]; 77% and 83% in [12]. The Activity in assay [13] was 101% and 123%; in assay [14] it was 103% and 121%; in assay [15], 101% and 102%; in [16], 108% and 94%.

Consider `CNC(=O)Cn1cc(-c2cc3c(N[C@@H](c4ccc5c(c4)S(=O)(=O)CCC5)C(C)C)ncnc3[nH]2)cn1`, for which the Activity in [1] worked out at 95%; in assay [2], 104%; in assay [3], 89%; in assay [4], 98%; in [5], 103%; in assay [6], 99%. For the same compound, the Activity in assay [7] was 114%; in assay [8] it was 91%; in [9], 98%; in [10], 111%; in [11], 92%; in [12], 94%. Further, the Activity in assay [13] came out at 94%; in assay [14], 112%; in assay [15], 95%; in assay [16], 105%.

Take `CNCc1cc(-c2cc3c(N[C@@H](c4ccc5c(c4)S(=O)(=O)CCC5)C(C)C)ncnc3[nH]2)co1`: the Activity was determined as 98% in assay [1]; 105% in assay [2]; 86% in assay [3]; 124% in assay [4]; 97% in assay [5]; 96% in assay [6]. The Activity was determined as 105% in [7]; 88% in [8]; 92% in [9]; 106% in [10]; 91% in [11]; 94% in assay [12]. Further, the Activity in [13] was 114%; in [14], 108%; in [15] it was 100%; in assay [16], 99%.

For the origin of these results see ChEMBL document CHEMBL5442741, “ASAP - In vitro kinase profile” (2024).
